Reference: PubChem BioAssay (NCI)
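Step 1: Grow cells in 96-well plates. Step 2: Expose to compound for 48 hours at 5 concentrations. Step 3: Interpolate endpoints linearly; if unreached, use highest concentration. The concentration for 50% growth inhibition is given as GI50. Definition used: TGI = concentration required for complete inhibition of growth.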

Experiments:
Assay in all cases: DTP human tumour cell line panel, 48 h
MDA-MB-435 = system: MDA-MB-435
UACC-257 melanoma = system: UACC-257 melanoma
BT-549 breast = system: BT-549 breast
SF-268 CNS = system: SF-268 CNS
EKVX NSCLC = system: EKVX NSCLC
HL-60(TB) leukemia = system: HL-60(TB) leukemia
OVCAR-8 ovarian = system: OVCAR-8 ovarian
HOP-62 NSCLC = system: HOP-62 NSCLC
SF-539 CNS = system: SF-539 CNS
PC-3 prostate = system: PC-3 prostate
RXF 393 renal = system: RXF 393 renal
NCI-H226 lung = system: NCI-H226 lung
NCI-H522 lung = system: NCI-H522 lung
SK-MEL-5 melanoma = system: SK-MEL-5 melanoma
TK-10 renal = system: TK-10 renal
HCC-2998 colon = system: HCC-2998 colon
HOP-92 NSCLC = system: HOP-92 NSCLC
T-47D breast = system: T-47D breast
DU-145 prostate = system: DU-145 prostate
LOX IMVI melanoma = system: LOX IMVI melanoma
HCT-15 colon = system: HCT-15 colon
SW-620 colon = system: SW-620 colon
A549 NSCLC = system: A549 NSCLC
MCF7 breast = system: MCF7 breast
MALME-3M melanoma = system: MALME-3M melanoma
SK-MEL-28 melanoma = system: SK-MEL-28 melanoma
K-562 leukemia = system: K-562 leukemia
OVCAR-4 ovarian = system: OVCAR-4 ovarian
U251 CNS = system: U251 CNS
SNB-19 CNS = system: SNB-19 CNS
SR leukemia = system: SR leukemia
UACC-62 melanoma = system: UACC-62 melanoma
NCI/ADR-RES ovarian = system: NCI/ADR-RES ovarian
SF-295 CNS = system: SF-295 CNS
UO-31 renal = system: UO-31 renal
HT29 colon = system: HT29 colon
SNB-75 CNS = system: SNB-75 CNS
NCI-H460 lung = system: NCI-H460 lung
RPMI-8226 leukemia = system: RPMI-8226 leukemia
MDA-MB-231 breast = system: MDA-MB-231 breast
786-0 renal = system: 786-0 renal
M14 melanoma = system: M14 melanoma
CCRF-CEM leukemia = system: CCRF-CEM leukemia
OVCAR-5 ovarian = system: OVCAR-5 ovarian
CAKI-1 renal = system: CAKI-1 renal
HS 578T breast = system: HS 578T breast
SK-OV-3 ovarian = system: SK-OV-3 ovarian
MOLT-4 leukemia = system: MOLT-4 leukemia
OVCAR-3 ovarian = system: OVCAR-3 ovarian
KM12 colon = system: KM12 colon
COLO 205 colon = system: COLO 205 colon
SK-MEL-2 melanoma = system: SK-MEL-2 melanoma
IGROV1 ovarian = system: IGROV1 ovarian
SN12C renal = system: SN12C renal
HCT-116 colon = system: HCT-116 colon
ACHN renal = system: ACHN renal
NCI-H23 lung = system: NCI-H23 lung
A498 renal = system: A498 renal

For `Oc1ccccc1N=Cc1c(O)ccc2ccccc12`, which GI50 (MDA-MB-435) is on record?
The GI50 was 17 µM.

What about the TGI (MDA-MB-435) of the same compound?
The TGI was 52.6 µM.

And the GI50 (UACC-257 melanoma)?
Its GI50 is 15.2 µM.

What about the TGI (UACC-257 melanoma) of the same compound?
Its TGI is 56.6 µM.

What about the GI50 (BT-549 breast) of the same compound?
Its GI50 is 5.88 µM.

And the TGI (BT-549 breast)?
The TGI was 30 µM.

What about the GI50 (SF-268 CNS) of the same compound?
Its GI50 is 15.8 µM.

And the TGI (SF-268 CNS)?
The TGI was 76.8 µM.

And the GI50 (EKVX NSCLC)?
The GI50 was 15.8 µM.

And the TGI (EKVX NSCLC)?
Its TGI is 57.8 µM.

And the GI50 (HL-60(TB) leukemia)?
The GI50 was 4.95 µM.

What about the TGI (HL-60(TB) leukemia) of the same compound?
Its TGI is 33.3 µM.

What about the GI50 (OVCAR-8 ovarian) of the same compound?
Its GI50 is 18.1 µM.

And the TGI (OVCAR-8 ovarian)?
Its TGI is 72 µM.

And the GI50 (HOP-62 NSCLC)?
Its GI50 is 17.5 µM.

What about the TGI (HOP-62 NSCLC) of the same compound?
Its TGI is 97.6 µM.

What about the GI50 (SF-539 CNS) of the same compound?
Its GI50 is 14.2 µM.

What about the TGI (SF-539 CNS) of the same compound?
Its TGI is 39 µM.

And the GI50 (PC-3 prostate)?
The GI50 was 7.28 µM.

And the TGI (PC-3 prostate)?
Its TGI is 66.2 µM.

What about the GI50 (RXF 393 renal) of the same compound?
The GI50 was 10.6 µM.

What about the TGI (RXF 393 renal) of the same compound?
The TGI was 34.6 µM.

What about the GI50 (NCI-H226 lung) of the same compound?
Its GI50 is 11.5 µM.

And the TGI (NCI-H226 lung)?
Its TGI is 61.7 µM.

And the GI50 (NCI-H522 lung)?
The GI50 was 6.73 µM.

And the TGI (NCI-H522 lung)?
The TGI was 39.3 µM.

And the GI50 (SK-MEL-5 melanoma)?
Its GI50 is 9.99 µM.

And the TGI (SK-MEL-5 melanoma)?
Its TGI is 34.7 µM.

And the GI50 (TK-10 renal)?
The GI50 was 14.2 µM.

What about the TGI (TK-10 renal) of the same compound?
The TGI was 66.2 µM.

What about the GI50 (HCC-2998 colon) of the same compound?
Its GI50 is 16.5 µM.

And the TGI (HCC-2998 colon)?
Its TGI is 72.4 µM.

And the GI50 (HOP-92 NSCLC)?
Its GI50 is 3.17 µM.

What about the TGI (HOP-92 NSCLC) of the same compound?
The TGI was 18.5 µM.

What about the GI50 (T-47D breast) of the same compound?
Its GI50 is 7.5 µM.

What about the TGI (T-47D breast) of the same compound?
The TGI was 54.9 µM.

And the GI50 (DU-145 prostate)?
The GI50 was 19.5 µM.

What about the TGI (DU-145 prostate) of the same compound?
Its TGI is greater than 100 µM.

And the GI50 (LOX IMVI melanoma)?
Its GI50 is 10.6 µM.

And the TGI (LOX IMVI melanoma)?
The TGI was 45 µM.

And the GI50 (HCT-15 colon)?
The GI50 was 15.3 µM.

And the TGI (HCT-15 colon)?
Its TGI is greater than 100 µM.

And the GI50 (SW-620 colon)?
Its GI50 is 17.3 µM.

And the TGI (SW-620 colon)?
The TGI was greater than 100 µM.

What about the GI50 (A549 NSCLC) of the same compound?
The GI50 was 24.6 µM.

What about the TGI (A549 NSCLC) of the same compound?
The TGI was 91.9 µM.

What about the GI50 (MCF7 breast) of the same compound?
Its GI50 is 8.35 µM.

What about the TGI (MCF7 breast) of the same compound?
The TGI was 52.3 µM.

What about the GI50 (MALME-3M melanoma) of the same compound?
The GI50 was 5 µM.

What about the TGI (MALME-3M melanoma) of the same compound?
The TGI was 27 µM.

And the GI50 (SK-MEL-28 melanoma)?
The GI50 was 22.4 µM.

What about the TGI (SK-MEL-28 melanoma) of the same compound?
The TGI was 84.5 µM.

What about the GI50 (K-562 leukemia) of the same compound?
Its GI50 is 15.3 µM.

What about the TGI (K-562 leukemia) of the same compound?
Its TGI is greater than 100 µM.

And the GI50 (OVCAR-4 ovarian)?
Its GI50 is 13.4 µM.

And the TGI (OVCAR-4 ovarian)?
The TGI was 75.4 µM.

What about the GI50 (U251 CNS) of the same compound?
The GI50 was 19.8 µM.

And the TGI (U251 CNS)?
The TGI was 67.9 µM.

What about the GI50 (SNB-19 CNS) of the same compound?
Its GI50 is 21.8 µM.

And the TGI (SNB-19 CNS)?
The TGI was greater than 100 µM.

And the GI50 (SR leukemia)?
Its GI50 is 15.3 µM.

And the TGI (SR leukemia)?
Its TGI is 47.7 µM.

What about the GI50 (UACC-62 melanoma) of the same compound?
The GI50 was 9.78 µM.

And the TGI (UACC-62 melanoma)?
Its TGI is 38.5 µM.

And the GI50 (NCI/ADR-RES ovarian)?
Its GI50 is 5.58 µM.

What about the TGI (NCI/ADR-RES ovarian) of the same compound?
Its TGI is 40.8 µM.

And the GI50 (SF-295 CNS)?
Its GI50 is 11.7 µM.

And the TGI (SF-295 CNS)?
The TGI was 40.4 µM.

And the GI50 (UO-31 renal)?
Its GI50 is 3.59 µM.

And the TGI (UO-31 renal)?
The TGI was 28.3 µM.

And the GI50 (HT29 colon)?
Its GI50 is 16.4 µM.

And the TGI (HT29 colon)?
The TGI was 40.1 µM.

And the GI50 (SNB-75 CNS)?
Its GI50 is 10.4 µM.

What about the TGI (SNB-75 CNS) of the same compound?
Its TGI is 62.5 µM.

What about the GI50 (NCI-H460 lung) of the same compound?
Its GI50 is 10.7 µM.

What about the TGI (NCI-H460 lung) of the same compound?
Its TGI is 47 µM.

What about the GI50 (RPMI-8226 leukemia) of the same compound?
The GI50 was 2.77 µM.

What about the TGI (RPMI-8226 leukemia) of the same compound?
The TGI was 37 µM.

And the GI50 (MDA-MB-231 breast)?
Its GI50 is 5.75 µM.

What about the TGI (MDA-MB-231 breast) of the same compound?
The TGI was 27.5 µM.

What about the GI50 (786-0 renal) of the same compound?
The GI50 was 19.5 µM.

What about the TGI (786-0 renal) of the same compound?
Its TGI is 68.3 µM.

What about the GI50 (M14 melanoma) of the same compound?
The GI50 was 13.4 µM.

What about the TGI (M14 melanoma) of the same compound?
The TGI was 40.2 µM.

And the GI50 (CCRF-CEM leukemia)?
Its GI50 is 3.2 µM.

What about the TGI (CCRF-CEM leukemia) of the same compound?
Its TGI is 47.1 µM.

And the GI50 (OVCAR-5 ovarian)?
The GI50 was 24.6 µM.

And the TGI (OVCAR-5 ovarian)?
The TGI was 62.9 µM.

What about the GI50 (CAKI-1 renal) of the same compound?
Its GI50 is 5.61 µM.

What about the TGI (CAKI-1 renal) of the same compound?
Its TGI is 26.6 µM.

And the GI50 (HS 578T breast)?
The GI50 was 15 µM.

What about the TGI (HS 578T breast) of the same compound?
Its TGI is greater than 100 µM.

And the GI50 (SK-OV-3 ovarian)?
Its GI50 is 15.9 µM.

What about the TGI (SK-OV-3 ovarian) of the same compound?
The TGI was 54.7 µM.

And the GI50 (MOLT-4 leukemia)?
The GI50 was 10.2 µM.

What about the TGI (MOLT-4 leukemia) of the same compound?
The TGI was 80.3 µM.

What about the GI50 (OVCAR-3 ovarian) of the same compound?
Its GI50 is 11.9 µM.

And the TGI (OVCAR-3 ovarian)?
Its TGI is 46.1 µM.

And the GI50 (KM12 colon)?
The GI50 was 16.5 µM.

What about the TGI (KM12 colon) of the same compound?
Its TGI is greater than 100 µM.

And the GI50 (COLO 205 colon)?
Its GI50 is 30.7 µM.

What about the TGI (COLO 205 colon) of the same compound?
Its TGI is greater than 100 µM.

And the GI50 (SK-MEL-2 melanoma)?
Its GI50 is 13.3 µM.

What about the TGI (SK-MEL-2 melanoma) of the same compound?
The TGI was 40.5 µM.

And the GI50 (IGROV1 ovarian)?
Its GI50 is 4.84 µM.

What about the TGI (IGROV1 ovarian) of the same compound?
The TGI was 26.1 µM.

And the GI50 (SN12C renal)?
Its GI50 is 15.4 µM.

And the TGI (SN12C renal)?
Its TGI is 71.9 µM.

What about the GI50 (HCT-116 colon) of the same compound?
Its GI50 is 13 µM.

And the TGI (HCT-116 colon)?
Its TGI is 46 µM.

And the GI50 (ACHN renal)?
The GI50 was 4.96 µM.

And the TGI (ACHN renal)?
Its TGI is 42.6 µM.

And the GI50 (NCI-H23 lung)?
The GI50 was 13.8 µM.

And the TGI (NCI-H23 lung)?
The TGI was 49.8 µM.

What about the GI50 (A498 renal) of the same compound?
The GI50 was 5.61 µM.

And the TGI (A498 renal)?
Its TGI is 23.6 µM.
